The text below walks through data of ChEMBL document CHEMBL1909046, “DrugMatrix in vitro pharmacology data”.

Assay [1] has as its target Sigma non-opioid intracellular receptor 1 (Homo sapiens, UniProt Q99720). In words: DRUGMATRIX: Sigma1 radioligand binding (ligand: [3H] Haloperidol). Type of assay: cell membranes, Jurkat, Membrane. The settings on record: Not Active = under 50% inhibition at 10 µM.
Assay [2] can be described thus: DRUGMATRIX: Glutamate, AMPA radioligand binding (ligand: [3H] AMPA). It counts as cell membranes, Rattus norvegicus, Wistar, Cerebral cortex, Membrane. The settings on record: Not Active = under 50% inhibition at 10 µM.
The nature of assay [3]: DRUGMATRIX: Potassium Channel [KATP] radioligand binding (ligand: [3H] Glyburide). Type of assay: cell membranes, Membrane. The settings on record: hit-t15; Not Active = under 50% inhibition at 10 µM.
The target in assay [4] is T1, Endothelin-1 receptor (Homo sapiens, UniProt P25101). Further: in other assays of this panel Not Active means under 50% inhibition at 10 µM.
T1 sequence (P25101 whole entry): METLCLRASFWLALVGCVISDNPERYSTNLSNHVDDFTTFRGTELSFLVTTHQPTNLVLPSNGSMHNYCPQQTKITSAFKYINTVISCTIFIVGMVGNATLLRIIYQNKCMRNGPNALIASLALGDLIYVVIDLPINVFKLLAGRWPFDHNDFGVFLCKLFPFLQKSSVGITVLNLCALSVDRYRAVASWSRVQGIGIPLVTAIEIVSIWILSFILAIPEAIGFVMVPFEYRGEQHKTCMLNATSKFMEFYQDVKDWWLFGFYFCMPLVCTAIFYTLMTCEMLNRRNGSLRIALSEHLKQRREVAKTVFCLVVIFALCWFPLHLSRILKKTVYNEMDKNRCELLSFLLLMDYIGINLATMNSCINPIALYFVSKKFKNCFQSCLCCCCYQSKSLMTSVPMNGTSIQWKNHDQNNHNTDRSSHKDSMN
It counts as cell membranes, Membrane. The settings on record: cho-k1.

For assay [5], the target named is T2, Muscarinic acetylcholine receptor M5 (Homo sapiens, UniProt P08912). Further: in other assays of this panel Not Active means under 50% inhibition at 10 µM.
T2 sequence (P08912 whole entry): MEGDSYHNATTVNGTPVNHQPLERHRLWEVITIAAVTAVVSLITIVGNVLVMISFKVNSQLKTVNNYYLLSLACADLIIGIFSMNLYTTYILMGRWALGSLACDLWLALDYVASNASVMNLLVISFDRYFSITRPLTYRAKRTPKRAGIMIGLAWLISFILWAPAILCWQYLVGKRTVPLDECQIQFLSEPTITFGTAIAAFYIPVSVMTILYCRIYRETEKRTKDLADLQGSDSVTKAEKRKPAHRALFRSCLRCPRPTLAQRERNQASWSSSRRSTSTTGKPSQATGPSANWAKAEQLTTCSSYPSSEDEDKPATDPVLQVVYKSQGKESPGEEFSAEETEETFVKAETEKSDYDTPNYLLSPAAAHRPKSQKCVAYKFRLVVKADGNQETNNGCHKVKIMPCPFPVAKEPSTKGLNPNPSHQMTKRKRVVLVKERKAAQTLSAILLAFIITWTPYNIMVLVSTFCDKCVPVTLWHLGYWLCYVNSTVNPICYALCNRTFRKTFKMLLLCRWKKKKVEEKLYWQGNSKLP
Type of assay: cell membranes, CHO-K1, Membrane.

The nature of assay [6]: DRUGMATRIX: Platelet-Derived Growth Factor (PDGF) radioligand binding (ligand: [125I] PDGF). The settings on record: nih3t3; Not Active = under 50% inhibition at 10 µM. Type of assay: cell-based.

Sequence of Sigma non-opioid intracellular receptor 1 (Q99720 whole entry): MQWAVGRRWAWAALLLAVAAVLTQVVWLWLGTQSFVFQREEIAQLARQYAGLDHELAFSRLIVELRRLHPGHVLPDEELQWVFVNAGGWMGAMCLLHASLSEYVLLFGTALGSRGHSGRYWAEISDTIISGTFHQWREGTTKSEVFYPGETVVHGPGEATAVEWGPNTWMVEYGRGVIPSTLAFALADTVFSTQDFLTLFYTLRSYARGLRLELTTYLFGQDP

On to CARBOXYMETHYLCELLULOSE, for which the IC50 result in assay [1] (jurkat), in assay [2], in assay [3], in assay [4], in assay [5] (cho-k1) and in assay [6] was “Not Active” throughout. Further, the Ki entry in assay [1] (jurkat), in assay [2], in assay [3], in assay [4], in assay [5] (cho-k1) and in assay [6] was “Not Active” in each case.
`NC(=O)CN1CCCC1=O`: the IC50 result in assay [1] (jurkat), in assay [2], in assay [3], in assay [4], in assay [5] (cho-k1) and in assay [6] was “Not Active” in each case. Further, the Ki entry in assay [2], in assay [3] and in assay [6] was “Not Active” throughout.
On to `CC(N)Cc1c[nH]c2ccc(OCc3cccs3)cc12` (centres undefined) [BW-723C86], for which the IC50 result in assay [1] (jurkat), in assay [2], in assay [3], in assay [4], in assay [5] (cho-k1) and in assay [6] was “Not Active” throughout. Moreover, the Ki entry in assay [2], in assay [3] and in assay [6] was “Not Active” each time.
On to `CNC[C@H](O)c1ccc(O)c(O)c1` [EPINEPHRINE], for which the IC50 result in assay [1] (jurkat), in assay [2], in assay [3], in assay [4], in assay [5] (cho-k1) and in assay [6] was “Not Active” in each case. Moreover, the Ki entry in assay [2], in assay [3] and in assay [6] was “Not Active” each time.
As to `c1ccc2c(c1)Nc1ccccc1S2` [PHENOTHIAZINE], the IC50 result in assay [1] (jurkat), in assay [2], in assay [3], in assay [4], in assay [5] (cho-k1) and in assay [6] was “Not Active” in each case. The Ki result in assay [2], in assay [3] and in assay [6] was “Not Active” throughout.
On to `ClC1=C(Cl)[C@]2(Cl)[C@@H]3[C@@H]4C[C@@H]([C@H]5O[C@@H]45)[C@@H]3[C@@]1(Cl)C2(Cl)Cl` [DIELDRIN], for which the IC50 result in assay [1] (jurkat), in assay [2], in assay [3], in assay [4], in assay [5] (cho-k1) and in assay [6] was “Not Active” in each case. The Ki entry in assay [2], in assay [3] and in assay [6] was “Not Active” each time.
Turning to `CC(C)(c1ccc(O)cc1)c1ccc(O)cc1` [BISPHENOL A], the IC50 entry in assay [1] (jurkat), in assay [2], in assay [3], in assay [4], in assay [5] (cho-k1) and in assay [6] was “Not Active” in each case. Also, the Ki result in assay [2], in assay [3] and in assay [6] was “Not Active” in each case.
Regarding `CN(Cc1cc(Br)cc(Br)c1N)C1CCCCC1` [BROMHEXINE], the IC50 in assay [1] (read-out: IC50) is 61 nM; in assay [2] it was “Not Active”; in assay [3] it was “Not Active”; in assay [4] it was “Not Active”; in assay [5] (cho-k1), “Not Active”; in assay [6], “Not Active”. For the same compound, the Ki in assay [1] (read-out: Ki) is 25 nM; in assay [2], “Not Active”; in assay [3], “Not Active”; in assay [6], “Not Active”.
Turning to `c1ccc(Cn2ccnc2)cc1`, the IC50 result in assay [1] (jurkat), in assay [2], in assay [3], in assay [4], in assay [5] (cho-k1) and in assay [6] was “Not Active” throughout. The Ki result in assay [2], in assay [3] and in assay [6] was “Not Active” each time.
`CCO` [ALCOHOL]: the IC50 entry in assay [1] (jurkat), in assay [2], in assay [3], in assay [4], in assay [5] (cho-k1) and in assay [6] was “Not Active” each time. For the same compound, the Ki result in assay [2], in assay [3] and in assay [6] was “Not Active” in each case.
As to `CCN1CCN(C(=O)N[C@@H](C(=O)N[C@@H]2C(=O)N3[C@@H]2SC(C)(C)[C@@H]3C(=O)O)c2ccccc2)C(=O)C1=O` [PIPERACILLIN], the IC50 entry in assay [1] (jurkat), in assay [2], in assay [3], in assay [4], in assay [5] (cho-k1) and in assay [6] was “Not Active” in each case. Also, the Ki entry in assay [2], in assay [3] and in assay [6] was “Not Active” throughout.
In the case of `NC(=O)NC(=O)Cc1ccccc1` [PHENACEMIDE], the IC50 entry in assay [1] (jurkat), in assay [2], in assay [3], in assay [4], in assay [5] (cho-k1) and in assay [6] was “Not Active” in each case. Also, the Ki result in assay [2], in assay [3] and in assay [6] was “Not Active” throughout.
As to `CC(CN1c2ccccc2Sc2ccccc21)N(C)C` (centres undefined) [PROMETHAZINE], the IC50 in assay [1] (read-out: IC50) is 287 nM; in assay [2], “Not Active”; in assay [3], “Not Active”; in assay [4] it was “Not Active”; in assay [5] (read-out: IC50) it was 4.6 nM; in assay [6], “Not Active”. Also, the Ki in assay [1] (read-out: Ki) was 120 nM; in assay [2] it was “Not Active”; in assay [3] it was “Not Active”; in assay [5] (read-out: Ki) it was 3.31 nM; in assay [6], “Not Active”.
Consider `Nc1ccc(Cc2ccc(N)cc2)cc1`, for which the IC50 result in assay [1] (jurkat), in assay [2], in assay [3], in assay [4], in assay [5] (cho-k1) and in assay [6] was “Not Active” in each case. For the same compound, the Ki result in assay [2], in assay [3] and in assay [6] was “Not Active” each time.
As to `CC[C@H]1OC(=O)[C@H](C)[C@@H](O[C@H]2C[C@@](C)(OC)[C@@H](O)[C@H](C)O2)[C@H](C)[C@@H](O[C@@H]2O[C@H](C)C[C@H](N(C)C)[C@H]2O)[C@](C)(O)C[C@@H](C)C(=O)[C@H](C)[C@@H](O)[C@]1(C)O` [ERYTHROMYCIN], the IC50 result in assay [1] (jurkat), in assay [2], in assay [3], in assay [4], in assay [5] (cho-k1) and in assay [6] was “Not Active” in each case. Also, the Ki entry in assay [2], in assay [3] and in assay [6] was “Not Active” in each case.
As to `C[N+](C)(C)CCOP(=O)([O-])OC[C@H](O)CO`, the IC50 entry in assay [1] (jurkat), in assay [2], in assay [3], in assay [4], in assay [5] (cho-k1) and in assay [6] was “Not Active” throughout. In addition, the Ki entry in assay [2], in assay [3] and in assay [6] was “Not Active” throughout.
As for `Clc1cc(Cl)c(OCC#CI)cc1Cl` [HALOPROGIN], the IC50 entry in assay [1] (jurkat), in assay [2], in assay [3], in assay [4], in assay [5] (cho-k1) and in assay [6] was “Not Active” throughout. The Ki result in assay [2], in assay [3] and in assay [6] was “Not Active” each time.
